Where “and” joins values, the source holds several entries; their conditions need not be identical. Identical values can stand only once.
Experiments:
Type in all cases: cell-based
NaV1.5 = NaV1.5 (Homo sapiens, UniProt Q14524); assay: Cut-open oocyte recording of NaV1.5; conditions: 10 µM CP1
KCNQ1 = KCNQ1 (Homo sapiens, UniProt P51787); assay: KCNQ1 co-expressed with CiVSP (PIP2 depletion), two-electrode voltage clamp in Xenopus oocytes; conditions: ~10 µM CP1 injected into the oocyte; pulses to +60 mV
Source text: We co-expressed KCNQ1 with the voltage-dependent lipid phosphatase CiVSP[44] in Xenopus oocytes and recorded KCNQ1 currents using two-electrode voltage clamp with consecutive depolarizing voltage pulses. […] To more directly test CP1 effects, we applied CP1 to the intracellular side of the inside-out membrane patch that expressed IKs channels.

[1] = test system: guinea pig ventricular myocytes; assay: Action potential recording in ventricular myocytes with normal action potentials; parameters: actional potential duration (APD), Fig. 7h: unit not given here; conditions: for actional potential duration (APD), Fig. 7h: Control-Group, individual cells
Experimental: Fig. 7 Effects of CP1 on IKs and action potentials in cardiomyocytes. a IKs currents in guinea pig ventricular myocytes in the absence and presence of 30 µM CP1 in the whole-cell patch-clamp configuration. Holding potential: −40 mV; testing potentials: −20 to +60 mV with 10-mV increment; returning potential: −20 mV. […] Guinea pig ventricular myocytes were first perfused with 10 µM CP1 and 10 µM chromanol. After APD reached steady state, 10 µM CP1 was constitutively perfused alone. Last, CP1 was washed out for near-full reversal of APD shortening. g Effects of 0.2 µM CP1 on LQT action potentials. To mimic the LQT, 100 µM moxifloxacin was applied 2 h before the treatment of CP1. h Change of action potential duration after application of different [CP1]s (n = 5–7). Tukey–Kramer ANOVA test was used to compare control cells in different CP1 concentration, # is significant at P < 0.05. Unpaired two-tailed Student t tests were used to compare control and moxifloxacin cells at different CP1 concentration: * is significant at P < 0.05.
In ventricular myocytes, the duration and the morphology of action potentials are determined by various ion channels. Mutations in many of these channels and drugs that modify channel functions, such as an increase in inward Na^+ currents or decrease in outward K^+ currents, may lead to a prolonged action potential duration, which results in an inherited or acquired long QT syndrome that predisposes afflicted patients to cardiac arrhythmia. An enhancement of the outward IKs current may be able to counter these mutations or drug effects, and restore the action potential duration to more normal values. […] Next, we used an IKr blocker (Moxifloxacin, Moxi) to prolong action potentials and then applied various concentrations of CP1.
The use of guinea pigs was approved by the Stony Brook University Institutional Animal Care and Use Committee. Single ventricular myocytes were acutely enzymatically isolated from guinea pig heart as previously described. Guinea pigs, weighing 300–500 g, were sacrificed by peritoneal injection of sodium pentobarbitone (1 ml, 390 mg/ml). The isolated cells were stored in KB solution containing (in mM) 83 KCl, 30 K2HPO4, 5 MgSO4, 5 Na pyruvate, 5 β-OH-butyric acid, 20 creatine, 20 taurine, 10 glucose, and 0.5 EGTA, pH 7.2.
Action potentials were recorded with whole-cell patch-clamp recording techniques. Current-clamp configuration was used. Freshly isolated guinea pig cardiac myocytes were placed at 1 Hz with a stimulus of 180-pA amplitude and 10-mS duration. The APD was determined at 90% repolarization. Several minutes were allowed for the APD to reach steady state before data were collected. Typical Tyrode mimic AP Solution for action potential recording was used. The bath solution is composed of (in mM) 140 NaCl, 3 KCl, 1 MgCl2, 1.8 CaCl2, 10 HEPES, and 10 Glucose, pH 7.4. The pipette solution is composed of (in mM) 115 K-aspartic acid, 35 KOH, 3 MgCl2, 10 HEPES, 11 EGTA, 5 Glucose, and 3 MgATP, pH 7.4.

Chain of NaV1.5 (Q14524 whole entry): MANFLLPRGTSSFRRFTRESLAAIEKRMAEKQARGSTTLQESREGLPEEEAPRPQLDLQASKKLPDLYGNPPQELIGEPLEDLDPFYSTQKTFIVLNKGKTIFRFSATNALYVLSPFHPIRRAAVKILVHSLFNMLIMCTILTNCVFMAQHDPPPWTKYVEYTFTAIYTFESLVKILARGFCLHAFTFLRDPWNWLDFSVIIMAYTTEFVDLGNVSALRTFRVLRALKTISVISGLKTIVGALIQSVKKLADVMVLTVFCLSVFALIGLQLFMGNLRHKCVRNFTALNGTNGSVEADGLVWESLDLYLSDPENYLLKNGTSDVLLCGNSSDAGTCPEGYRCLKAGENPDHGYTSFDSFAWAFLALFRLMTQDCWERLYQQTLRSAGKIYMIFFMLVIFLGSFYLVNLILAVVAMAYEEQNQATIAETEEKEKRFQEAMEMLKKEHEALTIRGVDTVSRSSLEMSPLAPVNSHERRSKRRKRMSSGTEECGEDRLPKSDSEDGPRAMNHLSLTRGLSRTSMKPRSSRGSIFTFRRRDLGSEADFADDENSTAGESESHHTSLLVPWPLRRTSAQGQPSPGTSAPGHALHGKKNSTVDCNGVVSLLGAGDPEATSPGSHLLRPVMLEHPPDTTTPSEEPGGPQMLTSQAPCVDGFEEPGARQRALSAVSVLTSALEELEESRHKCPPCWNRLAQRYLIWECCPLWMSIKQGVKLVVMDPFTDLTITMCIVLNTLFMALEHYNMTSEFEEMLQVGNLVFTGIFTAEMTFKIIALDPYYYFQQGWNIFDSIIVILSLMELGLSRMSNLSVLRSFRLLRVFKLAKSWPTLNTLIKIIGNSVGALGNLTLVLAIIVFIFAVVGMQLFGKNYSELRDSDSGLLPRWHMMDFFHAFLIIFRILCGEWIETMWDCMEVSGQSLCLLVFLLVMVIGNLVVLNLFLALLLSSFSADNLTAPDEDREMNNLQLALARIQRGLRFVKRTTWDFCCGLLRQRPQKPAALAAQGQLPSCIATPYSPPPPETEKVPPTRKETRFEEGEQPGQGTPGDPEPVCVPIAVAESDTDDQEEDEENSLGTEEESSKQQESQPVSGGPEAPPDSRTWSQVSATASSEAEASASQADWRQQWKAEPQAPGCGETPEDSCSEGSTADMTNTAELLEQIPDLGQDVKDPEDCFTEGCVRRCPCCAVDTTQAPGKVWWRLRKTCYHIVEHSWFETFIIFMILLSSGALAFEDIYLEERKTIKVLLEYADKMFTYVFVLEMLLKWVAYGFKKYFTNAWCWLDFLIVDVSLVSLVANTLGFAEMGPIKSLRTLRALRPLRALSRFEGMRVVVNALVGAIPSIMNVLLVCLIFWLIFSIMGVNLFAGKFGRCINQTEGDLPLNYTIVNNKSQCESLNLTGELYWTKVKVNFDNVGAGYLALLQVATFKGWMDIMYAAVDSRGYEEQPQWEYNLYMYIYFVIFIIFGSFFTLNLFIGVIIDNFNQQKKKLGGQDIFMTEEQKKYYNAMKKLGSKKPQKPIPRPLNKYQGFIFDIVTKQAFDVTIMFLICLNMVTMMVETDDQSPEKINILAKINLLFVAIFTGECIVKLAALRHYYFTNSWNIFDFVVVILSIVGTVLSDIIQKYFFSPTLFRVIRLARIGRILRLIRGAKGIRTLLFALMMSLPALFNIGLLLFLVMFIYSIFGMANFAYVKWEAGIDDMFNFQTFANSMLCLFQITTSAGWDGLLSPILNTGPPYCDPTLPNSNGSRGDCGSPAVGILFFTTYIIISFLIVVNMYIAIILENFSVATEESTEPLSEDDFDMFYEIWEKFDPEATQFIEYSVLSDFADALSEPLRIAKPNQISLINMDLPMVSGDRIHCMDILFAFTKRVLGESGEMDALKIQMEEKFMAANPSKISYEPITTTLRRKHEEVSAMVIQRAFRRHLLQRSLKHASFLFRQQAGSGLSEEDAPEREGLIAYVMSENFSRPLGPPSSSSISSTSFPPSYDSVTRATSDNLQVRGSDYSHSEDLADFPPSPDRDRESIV
Chain of NaV1.5 (Q07699 19-218 partner): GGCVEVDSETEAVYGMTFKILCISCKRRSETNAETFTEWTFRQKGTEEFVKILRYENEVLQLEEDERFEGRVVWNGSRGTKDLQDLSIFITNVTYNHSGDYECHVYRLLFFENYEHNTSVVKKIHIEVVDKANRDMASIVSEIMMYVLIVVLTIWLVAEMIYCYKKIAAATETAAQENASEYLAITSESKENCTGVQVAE

O=S(=O)([O-])Oc1c(-c2sc3c(ccc4cccc(Cl)c43)c2OS(=O)(=O)[O-])[nH]c2ccc(Br)cc12.[Na+].[Na+] [CP1, DISODIUM 5-BROMO-2-[9-CHLORO-3-(SULFONATOOXY) NAPHTHO [1,2-B] THIEN-2-YL]-1H-INDOL-3-YL SULFATE]
G/Gmax Mean (Fig. 6d) (NaV1.5; voltage -140 mV): 0.0026
G/Gmax Mean (Fig. 6d) (NaV1.5; voltage -160 mV): 0.0055
KCNQ1 currents after PIP2 depletion (KCNQ1): currents increased with consecutive voltage pulses
action potential duration ([1]; 0.2 µM CP1, control myocytes): did not alter action potential duration
action potential duration (APD) ([1]; 10 µM CP1 alone): significantly shortened
action potential duration (APD) ([1]; 10 µM CP1 perfused together with 10 µM chromanol 293B): not changed
action potentials in control cells ([1]; 0.6 and 6 µM CP1): shortened
actional potential duration (APD), Fig. 7h ([1]; 0.2 µM CP1): 682 and 570 and 576 and 550 and 596 and 520
actional potential duration (APD), Fig. 7h ([1]; 0.6 µM CP1): 473 and 609 and 463 and 428 and 542 and 511 and 475
actional potential duration (APD), Fig. 7h ([1]; 6 µM CP1): 347 and 378 and 362 and 454

From article PMC7367283, “A PIP2 substitute mediates voltage sensor-pore coupling in KCNQ activation” (Communications Biology, 2020)
